One assay concerns the target 5-HT2A receptor (Homo sapiens (Human), UniProt P28223). Briefly: Radioligand competition binding, affinity for 5-HT2A receptor ([3H]-ketanserin). Here is the method: The affinity of the compounds of the present invention for the 5-HT2A receptors was determined by the method of radioligand competition experiment. In the first step, a cell membrane component containing specific 5-HT2A receptor was prepared. A 10 cm dish was used for transfection with 10 ng of the 5-HT2A receptor and 40 μL of PEI. […] A vacuum pump was used to suck off the culture medium, 3 mL of lysis buffer was added to each well, and the cells were placed in a 4° C. freezer for 10 minutes. After the cells were detached, the cells were transferred to a 15 mL centrifuge tube and centrifuged at 1500 rpm for 5 minutes at 4° C., and the supernatant was discarded. The cell pellet was transferred to a tissue homogenizer, and 3 mL of lysis buffer was added and fully ground until the cells were broken. Then, cell suspension was equally divided into several EP tubes, centrifuged at 4° C. and 12000 rpm for 5 min, and the supernatant was discarded. The precipitate was the cell membrane component containing the 5-HT2A receptor. […] First, a standard binding buffer was added to the cell membrane component containing the 5-HT2A receptor, and the cell membrane was disrupted and resuspended with an electric tissue homogenizer. 30 μL of membrane protein suspension was added to each well of a 96-well plate. Then, 30 μL of different drugs were added to the 96-well plate from left to right to ensure that the final drug concentrations were 10^−5 M, 10^−6 M, 10^−7 M, 10^−8 M, 10^−9 M and 0 M, with two replicates per treatment. Next, 30 μL [^3H]-ketanserin was added to each well of the 96-well plate. The plate was incubated for 2 hours at room temperature in the dark. Detection. The machine reading value reflected the amount of [^3H]-ketanserin bound on the membrane, and after further data processing, the affinity Ki value of different compounds for 5-HT2A receptor was obtained.
(In a radioligand displacement assay an active substance lowers the binding of a labelled ligand.)

The target of assay [1] is T1, dopamine D2 receptors (Homo sapiens (Human), UniProt P14416). Nature of the assay: Radioligand competition binding, affinity for dopamine D2 receptors ([3H]-Methylspiperone). The note with it: [3H]-Methylspiperone (0.3-0.5 nM), HEK-293T membranes; for Ki: I-1 to 19 n=3, I-20 to 27 single determination; for Affinity pKi ± SEM: n=3. As for the experimental part: A 10 cm diameter dish was used for transfection with 10 ng of the dopamine D2 receptors and 40 μL of PEI. After 48 hours, the 10 cm dish was taken out from the cell culture room and the cultured cells had expressed the dopamine D2 receptors. A vacuum pump was used to suck off the culture medium, 3 mL of lysis buffer (50 mM Tris hydrochloric acid buffer, pH 7.4) was added to each well, and the cells were placed in a 4° C. freezer for 10 minutes. After the cells were detached, the cells were transferred to a 15 mL centrifuge tube and centrifuged at 1500 rpm for 5 minutes at 4° C., and the supernatant was discarded. The cell pellet was transferred to a tissue homogenizer, and 3 mL of lysis buffer was added and fully ground until the cells were broken. Then, cell suspension was equally divided into several EP tubes, centrifuged at 4° C. and 12000 rpm for 5 min, and the supernatant was discarded. The precipitate was the cell membrane component containing the dopamine D2 receptors and stored at −80° C.
T1 sequence (P14416 whole entry): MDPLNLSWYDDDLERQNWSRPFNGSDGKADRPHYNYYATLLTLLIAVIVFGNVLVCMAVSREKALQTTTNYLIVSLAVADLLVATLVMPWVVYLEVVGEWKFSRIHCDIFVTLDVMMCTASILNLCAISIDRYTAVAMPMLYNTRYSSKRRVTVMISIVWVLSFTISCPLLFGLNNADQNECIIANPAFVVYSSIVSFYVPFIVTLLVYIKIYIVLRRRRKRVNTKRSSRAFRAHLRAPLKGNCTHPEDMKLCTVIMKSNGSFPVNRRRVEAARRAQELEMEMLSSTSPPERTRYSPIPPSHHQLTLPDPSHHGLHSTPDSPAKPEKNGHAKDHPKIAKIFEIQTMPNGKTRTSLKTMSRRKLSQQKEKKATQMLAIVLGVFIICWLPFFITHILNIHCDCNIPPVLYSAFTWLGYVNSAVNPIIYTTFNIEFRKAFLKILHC
First, a standard binding buffer (50 mM HEPES, 50 mM NaCl, 5 mM MgCl2, 0.5 mM EDTA, pH 7.4) was added to the cell membrane component containing the dopamine D2 receptors, and the cell membrane was disrupted and resuspended with an electric tissue homogenizer. 30 μL of membrane protein suspension was added to each well of a 96-well plate. Then, 30 μL of different drugs were added to the 96-well plate from left to right to ensure that the final drug concentrations were 10^−5 M, 10^−6 M, 10^−7 M, 10^−8 M, 10^−9 M and 0 M, with two replicates per treatment. Next, 30 μL [^3H]-N-Methylspiperone was added to each well of the 96-well plate, and the plate was incubated for 2 hours at room temperature in the dark. The unbound isotopes were removed by Whatman GF/C filter membrane and vacuum pump, and the isotopes bound to the receptors were detected by MicroBeta isotope liquid scintillation counter.
The affinity of the compounds of the present invention for the dopamine D2 receptors was determined by the method of radioligand competition experiment. In the first step, a cell membrane component containing specific dopamine D2 receptors was prepared. A10 cm dish was used for transfection with 10 ng of the dopamine D2 receptors and 40 μL of PEI. After 48 hours, the 10 cm dish was taken out from the cell culture room and the cultured cells had expressed the dopamine D2 receptors. A vacuum pump was used to suck off the culture medium, 3 mL of lysis buffer was added to each well, and the cells were placed in a 4° C. freezer for 10 minutes. After the cells were detached, the cells were transferred to a 15 mL centrifuge tube and centrifuged at 1500 rpm for 5 minutes at 4° C., and the supernatant was discarded. The cell pellet was transferred to a tissue homogenizer, and 3 mL of lysis buffer was added and fully ground until the cells were broken. Then, cell suspension was equally divided into several EP tubes, centrifuged at 4° C. and 12000 rpm for 5 min, and the supernatant was discarded. The precipitate was the cell membrane component containing the dopamine D2 receptors. […] First, a standard binding buffer was added to the cell membrane component containing the dopamine D2 receptors, and the cell membrane was disrupted and resuspended with an electric tissue homogenizer. 30 μL of membrane protein suspension was added to each well of a 96-well plate. Then, 30 μL of different drugs were added to the 96-well plate from left to right to ensure that the final drug concentrations were 10^−5 M, 10^−6 M, 10^−7 M, 10^−8 M, 10^−9 M and 0 M, with two replicates per treatment. Next, 30 μL [^3H]-Methylspiperone was added to each well of the 96-well plate. The plate was incubated for 2 hours at room temperature in the dark. Detection. The machine reading value reflected the amount of [^3H]-Methylspiperone bound on the membrane, and after further data processing, the affinity Ki value of different compounds for dopamine D2 receptors was obtained.

The target in assay [2] is T1, dopamine D2 receptors. Nature of the assay: G protein Gαi1-γ9 dissociation BRET, dopamine D2 receptor functional activity. The class given is cell-based. The note with it: for Emax: relative to the endogenous ligand dopamine, read-out: Gai1 BRET Emax % ± SEM. Here is the method:
To examine downstream G protein signaling mediated by dopamine D2 receptors, 6 cm dish was used for transfection with 1μg of dopamine D2 receptors, 1μg of Gαi1 fused to seaweed luciferase (Gαi1-Rluc), 1 μg of Gβ3, 1 μg of Gγ9 fused to green fluorescent protein (Gγ9-GFP) and 16 μL of transfection reagent PEI. […] On the third day, the drugs were added for test.
(§1) To examine downstream G-protein signaling pathway mediated by dopamine D2 receptors, on the first day, 6 cm dish was used for transfection with 1μg of dopamine D2 receptors, 1μg of Gαi1 containing C-terminal seaweed luciferase (GGαi1-Rluc), 1 μg of […], 1 μg of Gγ9 containing C-terminal green fluorescent protein (Gγ9-GFP) and 16 μL of PEI. At the same time, in order to examine the downstream f3-arrestin2 signaling pathway mediated by dopamine D2 receptors, on the first day, 6 cm dish was used for transfection with 500 μg of dopamine D2 receptors containing C-terminal seaweed luciferase (D2-Rluc), 500 μg of G protein-coupled receptor kinase 2 (GRK2), 2500 μg of […] containing N-terminal green fluorescent protein (GFP2-ARRB2) and 14 μL of PEI. The next day, the overgrown cells were digested and plated a 96-well plate at the amount of cells contained in a 6 cm culture dish with overgrown cells, and 100 μL of culture medium was added to each well. On the third day, the drugs were added for test. The 96-well plate was taken out from the cell culture room to remove the culture medium, 40 μL of the substrate coelenterazine 400a (final concentration of 5 μM) was added to each well, and then 20 μL of different drugs were added in turn from left to right to ensure that the final concentration of the drugs decreased gradually from bottom to top, and each treatment was repeated twice. Finally, the prepared samples were loaded on machine for test. The machine reading value reflected the intracellular β-arrestin2 on the membrane and the dissociation of G protein trimer. The former indicated the degree of activation of the β-arrestin2 signaling pathway downstream of the dopamine D2 receptors, and the latter indicated the degree of activation of the G protein signaling pathway downstream of the dopamine D2 receptors.
For orientation: BRET reads energy transfer from a luciferase to a nearby fluorophore.

Assay [3] deals with T1, dopamine D2 receptors. Briefly: β-arrestin2 recruitment BRET, dopamine D2 receptor functional activity. The class given is cell-based. The note with it: for Emax: relative to the endogenous ligand dopamine, read-out: β-arrestin2 BRET Emax % ± SEM. Here is the method:
To examine the downstream f3-arrestin2 signaling pathway mediated by dopamine D2 receptors, 6 cm dish was used for transfection with 500 […] of dopamine D2 receptors fused to seaweed luciferase (D2-Rluc), 500 μg of G protein-coupled receptor kinase 2 (GRK2), 2500 μg of β-arrestin2 fused to green fluorescent protein (GFP2-ARRB2) and 14 μL of transfection reagent PEI. The next day, the overgrown cells were digested and plated a 96-well plate at the amount of cells contained in a 6 cm culture dish with overgrown cells, and 100 μL of culture medium was added to each well. On the third day, the drugs were added for test.
as §1

Setting [4] is: HEK-293T, I-1 to 19 n=3, I-20 to 27 single determination, read-out: Gai1 BRET EC50.
The mark [5] stands for this setting: HEK-293T, I-1 to 19 n=3, I-20 to 27 single determination, read-out: β-arrestin2 BRET EC50.
Setting [6] is: n=3, read-out: β-arrestin2 BRET pEC50 ± SEM (converted).

Chain of 5-HT2A receptor (P28223 whole entry): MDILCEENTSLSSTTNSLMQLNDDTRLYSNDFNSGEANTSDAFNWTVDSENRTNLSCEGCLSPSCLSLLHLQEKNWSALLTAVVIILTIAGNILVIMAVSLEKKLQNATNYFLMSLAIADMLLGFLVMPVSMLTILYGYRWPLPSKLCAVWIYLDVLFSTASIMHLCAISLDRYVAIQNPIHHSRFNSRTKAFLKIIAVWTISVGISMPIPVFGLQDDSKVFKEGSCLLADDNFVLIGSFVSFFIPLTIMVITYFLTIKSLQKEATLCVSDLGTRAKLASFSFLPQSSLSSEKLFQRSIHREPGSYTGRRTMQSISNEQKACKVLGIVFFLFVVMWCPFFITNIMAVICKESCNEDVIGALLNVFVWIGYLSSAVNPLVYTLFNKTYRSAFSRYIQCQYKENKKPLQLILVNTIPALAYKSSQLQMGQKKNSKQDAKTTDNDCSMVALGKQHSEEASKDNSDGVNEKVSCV

For the compound `O=c1ccc2ccc(OCCCCN3CCN4c5cccc6[nH]cc(c56)CC4C3)cc2[nH]1` (stereo not shown) [Compound I-2, 7-(4(4,6,6a,7,9,10-hexahydro-8H-pyrazino[1,2-a]pyrrolo[4,3,2-de]quinolin-8-yl)butoxy)quinolin-2(1H)-one], the “affinity for 5-HT2A receptor (in words)” value on 5-HT2A receptor is “very weak affinity”.
As for `O=S(=O)(N[C@H]1CC[C@H](CCN2CCN3c4cccc5[nH]cc(c45)CC3C2)CC1)c1ccccc1` (stereo partly shown) [Compound I-15, N-(4-(2-(4,6,6a,7,9,10-hexahydro-8H-pyrazino[1,2-a]pyrrolo[4,3,2-de]quinolin-8-yl)ethyl)cyclohexyl)phenylsulfonamide], the affinity at dopamine D2 receptors [1], expressed as Ki, was 77.5 nM. For the same compound, the “Affinity pKi ± SEM” value at dopamine D2 receptors [1] is reported as “(7.11 ± 0.12)”. Further, the figures for the EC50 at dopamine D2 receptors [2] (setting [4]) and at dopamine D2 receptors [3] (setting [5]) were 2.65 nM and 31.5 nM, respectively. In addition, the Emax (usually the maximal effect, on the per cent scale that the assay sets) at dopamine D2 receptors [2] was determined as 94%; on dopamine D2 receptors [3] it was 80%.
With `Cc1nc2n(c(=O)c1CCN1CCN3c4cccc5[nH]cc(c45)CC3C1)CCCC2` (stereo not shown) [Compound I-17, 3-(2-(4,6,6a,7,9,10-hexahydro-8H-pyrazino[1,2-a]pyrrolo[4,3,2-de]quinolin-8-yl)ethyl)-2-methyl-6,7,8,9-tetrahydro-4H-pyrido[1,2-a]pyrimidin-4-one], the Ki – broadly, the equilibrium dissociation constant of an inhibitor or competing ligand from its target – at dopamine D2 receptors [1] was found to be 55.8 nM. The “Affinity pKi ± SEM” value at dopamine D2 receptors [1] is on record as “(7.25 ± 0.12)”. Also, the EC50 at dopamine D2 receptors [2] (setting [4]) is 32.7 nM; at dopamine D2 receptors [3] (setting [5]), 202 nM; on dopamine D2 receptors [3] (setting [6]), 200 nM. Also, the values for the Emax on dopamine D2 receptors [2] and on dopamine D2 receptors [3] were 61% and 38%, respectively.
As to `Cn1cc2c3c(cccc31)N1CCN(CCCCOc3ccc4ccc(=O)[nH]c4c3)CC1C2` (stereo not shown) [Compound I-18, 7-(4-(4-methyl-4,6,6a,7,9,10-hexahydro-8H-pyrazino[1,2-a]pyrrolo[4,3,2-de]quinolin-8-yl)butoxy)quinolin-2(1H)-one], the Ki at dopamine D2 receptors [1] worked out at 61 nM. In addition, the “Affinity pKi ± SEM” value at dopamine D2 receptors [1] is reported as “(7.22 ± 0.02)”. Besides, the values for the EC50 at dopamine D2 receptors [2] (setting [4]) and at dopamine D2 receptors [3] (setting [5]) were 11 nM and 110 nM, respectively. In addition, the Emax was determined as 77% at dopamine D2 receptors [2] and 50% at dopamine D2 receptors [3].
`CN(C)C(=O)N[C@H]1CC[C@H](CCN2CCN3c4cccc5c4c(cn5C)CC3C2)CC1` (stereo partly drawn) [Compound I-19, 1,1-dimethyl-3-(4-(2-(4-methyl-4,6,6a,7,9,10-hexahydro-8H-pyrazino[1,2-a]pyrrolo[4,3,2-de]quinolin-8-yl)ethyl)trans-cyclohexyl)urea] gave a Ki on dopamine D2 receptors [1] of 52.7 nM. In addition, the “Affinity pKi ± SEM” value at dopamine D2 receptors [1] is reported as “(7.28 ± 0.15)”. In addition, the EC50 at dopamine D2 receptors [2] (setting [4]) was 4 nM; on dopamine D2 receptors [2] (n=3, read-out: Gai1 BRET pEC50 ± SEM (converted)) it was 4.17 nM; on dopamine D2 receptors [3] (setting [6]), 28.8 nM. The Emax at dopamine D2 receptors [2] stood at 71%; on dopamine D2 receptors [3], 34%.
`Cn1cc2c3c(cccc31)N1CCN(C/C=C/COc3ccc4c(c3)NC(=O)CC4)CC1C2` (stereo not shown) [Compound I-22, (E)-7-((4-(4-methyl-4,6,6a,7,9,10-hexahydro-8H-pyrazino[1,2-a]pyrrolo[4,3,2-de]quinolin-8-yl)-2-buten-1-yl)oxy)-3,4-dihydroquinolin-2(1H)-one]: at dopamine D2 receptors [1], the inhibition constant (Ki) came out at 176 nM. The EC50 at dopamine D2 receptors [2] (setting [4]) stood at 38 nM; on dopamine D2 receptors [3] (setting [5]) it was 91.6 nM. For the same compound, the figures for the Emax at dopamine D2 receptors [2] and on dopamine D2 receptors [3] were 41% and 32%, respectively.
In the same order, the values of `Cn1cc2c3c(cccc31)N1CCN(C/C=C/COc3ccc4ccc(=O)[nH]c4c3)CC1C2` (stereo not shown) [Compound I-23, (E)-7-((4-(4-methyl-4,6,6a,7,9,10-hexahydro-8H-pyrazino[1,2-a]pyrrolo[4,3,2-de]quinolin-8-yl)-2-buten-1-yl)oxy)quinolin-2(1H)-one] are 100 nM, 54.8 nM, 294 nM, 38% and 36%.

Values taken from patent US20240124456A1, “AZA-ERGOLINE DERIVATIVE AND PREPARATION METHOD THEREFOR AND APPLICATION THEREOF” (SHANGHAITECH UNIVERSITY, priority 2021, published 2024).
